# Columns and labels:
# SIK2 = biological target: T1, SIK2 (Homo sapiens, UniProt Q9H0K1); assay: ADP-Glo kinase assay, SIK2; format: biochemical; details: ADP-Glo SIK kinase assay
# T1 construct: purchased ThermoFisher Scientific PV4792
# How it was run: (§1)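 Kinase reactions (enzyme-substrate mix plus ATP) ran 120 min at room temperature for each of SIK3 and SIK2. Signal came from ADP-Glo: unconsumed ATP removed (40 min), ADP reconverted and detected by luciferase/luciferin (30 min), with luminescence tracking kinase activity. 10 μM staurosporine and 1% DMSO (final) served as controls.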
# SIK3 = biological target: T2, SIK3 (Homo sapiens, UniProt Q9Y2K2); assay: ADP-Glo kinase assay, SIK3; format: biochemical; details: ADP-Glo SIK kinase assay
# T2 construct: purchased SignalChem S12-11G-100
# How it was run: as §1
# [1] = tested on: LPS triggered IL-10 secretion in monocyte-derived macrophages (MdM); assay: MdM assay: LPS-triggered IL-10 (ELISA); format: cell-based, human; details: LPS 200 ng/mL, supernatant after 2 h, maximal fold change vs LPS only
# Procedure: SIK inhibition inhibits TNFα and increases IL-10 release in LPS triggered monocyte-derived macrophages (MdM) and dendritic […] al. 2012; Sundberg et al. 2014; Ozanne et al. 2015). This assay evaluates illustrative compounds of the invention for their inhibition of LPS-induced TNFα and LPS triggered IL-10 secretion in monocyte-derived macrophages. PBMCs are isolated from human blood samples (buffycoats). The buffy coat is aseptically transferred into a 50 mL Falcon tube, and diluted 1/2 in PBS. Falcon tubes are filled with 20 mL LymphoprepTM, on top of which 25 mL of the buffy coat is carefully added, tubes are centrifuged for 35 min at 400 g in temperature controlled centrifuge, without brake, at 25° C. PBMCs are aspirated from the white interface layer between sample and LymphoprepTM. PBMCs are washed five times in PBS. Cells are resuspended in RPMI 1640 complete medium supplemented with 10% FBS, 1% P/S, and cell density is determined using a hematologic analyzer (Sysmex XS-500i). PBMCs are centrifuged at 300×g for 10 min and resuspended at a density of 1.0*10^7 cells/80 μL Miltenyi buffer (PBS, pH 7.4, 1% FBS, 2 mM EDTA). Starting from this point of the protocol all steps are performed on ice. 20 μL of CD14+ micro-beads are added per 1.0*10^7 cells, the tube is mixed and incubated for 15 min in the fridge at 4° C. Cell suspension volume is adjusted to total volume of 100 mL using Miltenyi buffer, mixed gently and subsequently centrifuged for 10 min at 300×g. Supernantant is discarded and cell pellet is resuspended in 12 mL of Miltenyi buffer. Four LS columns are placed in the MACS Separator (magnet) from Miltenyi Biotec, and are prewet by rinsing with 3 mL of MACS buffer per column. Three mL of cell suspension is added onto the column (max 1*10^8 of labelled cells/column), and columns are subsequently washed 3 times with 3 mL of Miltenyi buffer. The columns are removed from the magnets, and 5 mL of Miltenyi buffer are added to the column to flush out the CD14+ fraction by pushing the plunger into the column. The flushed fractions are collected in a fresh 50 mL Falcon and volume is adjusted to 30 mL using Miltenyi buffer, cells are centrifuged for 10 min at 300×g. The obtained cell pellet is resuspended in 10 mL RPMI w/o FBS, and cell density is determined using a hematologic analyser (Sysmex XS-500i). 100 000 cells are seeded per well of a 96-well plate for differentiation to MdM in RPMI 1640 medium supplemented with 10% FBS, 1% P/S and 100 ng/mL rhM-CSF. On day 5 the medium is refreshed with 100 μL RPMI 1640 medium supplemented with 10% FBS, 1% P/S and 100 ng/mL rhM-CSF. On day 10, MdMs are triggered and compound is added. A compound dilution plate is made in 100% DMSO by 3-fold dilution of 10 mM stock solution. An intermediate dilution plate (10× final concentration) is made by diluting the compound dilution plate 50-fold in RPMI medium. Medium is carefully removed from cell plates using multichannel pipette, and replaced by 80 μL fresh medium. 10 μL of the 10× final concentration compound is added to the cells and incubated for 1 hour at 37° C. before addition of trigger. No trigger conditions/trigger conditions are spiked with equal final DMSO concentrations of 0.2% DMSO. 10 μL of 10×LPS (final conc. 200 ng/mL) solution are added to all wells except for the 'no trigger wells' where 10 μL medium is added. Supernatant is collected after 2 h (IL-10 determination) and after 20 h (TNFα determination) of LPS triggering. […]
# T2 sequence (Q9Y2K2 whole entry): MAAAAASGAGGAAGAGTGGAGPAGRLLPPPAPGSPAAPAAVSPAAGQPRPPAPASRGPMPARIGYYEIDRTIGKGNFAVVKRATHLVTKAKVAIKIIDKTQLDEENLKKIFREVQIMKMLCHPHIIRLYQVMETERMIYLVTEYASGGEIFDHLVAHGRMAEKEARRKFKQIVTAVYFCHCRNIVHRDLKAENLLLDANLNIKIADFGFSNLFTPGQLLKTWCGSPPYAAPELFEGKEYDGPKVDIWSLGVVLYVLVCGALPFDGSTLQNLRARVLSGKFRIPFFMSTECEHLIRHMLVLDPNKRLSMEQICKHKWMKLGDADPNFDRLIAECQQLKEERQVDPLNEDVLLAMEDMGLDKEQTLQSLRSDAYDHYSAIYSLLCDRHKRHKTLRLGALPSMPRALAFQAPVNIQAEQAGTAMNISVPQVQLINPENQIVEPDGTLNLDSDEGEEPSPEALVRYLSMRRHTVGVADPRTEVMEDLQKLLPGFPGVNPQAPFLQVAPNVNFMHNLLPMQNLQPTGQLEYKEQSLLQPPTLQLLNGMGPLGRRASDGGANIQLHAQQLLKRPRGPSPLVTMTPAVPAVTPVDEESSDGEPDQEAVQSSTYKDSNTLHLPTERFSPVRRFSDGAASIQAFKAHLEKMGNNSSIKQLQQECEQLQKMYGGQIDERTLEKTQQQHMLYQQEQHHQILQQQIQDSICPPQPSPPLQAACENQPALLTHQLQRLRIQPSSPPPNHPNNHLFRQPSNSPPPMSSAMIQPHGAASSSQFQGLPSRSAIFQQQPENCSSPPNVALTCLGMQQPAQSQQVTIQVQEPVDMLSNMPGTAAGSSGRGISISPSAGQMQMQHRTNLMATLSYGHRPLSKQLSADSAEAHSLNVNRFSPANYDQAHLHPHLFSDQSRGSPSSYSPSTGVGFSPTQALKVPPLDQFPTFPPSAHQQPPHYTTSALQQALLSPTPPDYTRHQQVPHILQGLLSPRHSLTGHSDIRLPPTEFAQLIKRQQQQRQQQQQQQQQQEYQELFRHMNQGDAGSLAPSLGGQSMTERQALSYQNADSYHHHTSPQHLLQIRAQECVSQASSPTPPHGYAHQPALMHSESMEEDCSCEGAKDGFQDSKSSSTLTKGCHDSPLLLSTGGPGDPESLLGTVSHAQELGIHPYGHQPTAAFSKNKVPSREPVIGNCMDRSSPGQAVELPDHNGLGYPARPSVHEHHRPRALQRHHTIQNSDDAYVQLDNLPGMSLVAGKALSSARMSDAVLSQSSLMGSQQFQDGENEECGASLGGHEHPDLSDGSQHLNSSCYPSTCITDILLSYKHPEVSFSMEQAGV
# T1 sequence (Q9H0K1 whole entry): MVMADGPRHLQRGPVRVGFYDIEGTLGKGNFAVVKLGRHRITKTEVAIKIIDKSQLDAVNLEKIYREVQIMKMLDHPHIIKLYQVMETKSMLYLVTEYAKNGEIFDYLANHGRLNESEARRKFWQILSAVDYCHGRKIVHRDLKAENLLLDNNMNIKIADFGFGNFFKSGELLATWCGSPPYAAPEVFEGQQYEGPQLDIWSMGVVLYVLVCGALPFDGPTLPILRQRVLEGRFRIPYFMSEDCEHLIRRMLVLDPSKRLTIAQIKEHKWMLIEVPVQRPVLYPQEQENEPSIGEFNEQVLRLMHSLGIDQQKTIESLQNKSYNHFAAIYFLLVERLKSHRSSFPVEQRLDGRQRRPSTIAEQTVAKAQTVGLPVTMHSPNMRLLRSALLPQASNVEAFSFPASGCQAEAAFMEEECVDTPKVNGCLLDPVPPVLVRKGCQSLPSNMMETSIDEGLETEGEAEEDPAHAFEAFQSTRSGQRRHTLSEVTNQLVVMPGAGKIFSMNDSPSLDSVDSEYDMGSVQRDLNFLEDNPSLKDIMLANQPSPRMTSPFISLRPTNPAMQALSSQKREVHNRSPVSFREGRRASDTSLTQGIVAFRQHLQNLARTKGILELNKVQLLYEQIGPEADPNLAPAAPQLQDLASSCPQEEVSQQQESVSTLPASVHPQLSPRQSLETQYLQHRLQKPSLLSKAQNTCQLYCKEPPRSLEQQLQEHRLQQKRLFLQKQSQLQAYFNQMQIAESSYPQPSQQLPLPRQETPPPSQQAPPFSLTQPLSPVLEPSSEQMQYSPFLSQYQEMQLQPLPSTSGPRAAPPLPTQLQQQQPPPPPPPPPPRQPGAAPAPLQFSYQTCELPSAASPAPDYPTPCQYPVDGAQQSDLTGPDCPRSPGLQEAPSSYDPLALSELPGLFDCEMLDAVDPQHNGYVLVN
Compound,IC50 (SIK2) [nM],IC50 (SIK3) [nM],IL-10 FCmax median [1]
"COc1cc(-c2cnc3cc(OCC(C)(C)N)ccn23)cc(OC(F)F)c1C(=O)NC1CC1 [compound 104, 4-[7-(2-amino-2-methyl-propoxy)imidazo[1,2-a]pyridin-3-yl]-N-cyclopropyl-2-(difluoromethoxy)-6-methoxy-benzamide]",0.01 to 10,0.01 to 10,+ (≤1.5)
"COc1cc(-c2cnc3cc(OCC4CCCCN4C)ccn23)cc(OC(F)F)c1C(=O)NC1CC1 (stereo not drawn) [compound 23, N-cyclopropyl-2-(difluoromethoxy)-6-methoxy-4-[7-[(1-methyl-2-piperidyl)methoxy]imidazo[1,2-a]pyridin-3-yl]benzamide]",0.01 to 10,0.01 to 10,++ (>1.5-4.5)
"COc1cc(-c2cnc3cc(OCCN4CCCCC4)ccn23)cc(OC(F)F)c1C(=O)NC1CC1 [compound 10, N-cyclopropyl-2-(difluoromethoxy)-6-methoxy-4-[7-[2-(1-piperidyl)ethoxy]imidazo [1,2-a]pyridin-3-yl]benzamide]",0.01 to 10,0.01 to 10,++ (>1.5-4.5)
"COc1cc(-c2cnc3cc(OCC4CN(C)C4)ccn23)cc(OC(F)F)c1C(=O)NC1CC1 [Cpd 14, N-cyclopropyl-2-(difluoromethoxy)-6-methoxy-4-[7-[(1-methylazetidin-3-yl)methoxy]imidazo[1,2-a]pyridin-3-yl]benzamide]",0.01 to 10,0.01 to 10,++ (>1.5-4.5)
"COc1cc(-c2cnc3cc(OCC(O)CN4CCOCC4)ccn23)cc(OC(F)F)c1C(=O)NC1CC1 (stereo not drawn) [Cpd 330, N-cyclopropyl-2-(difluoromethoxy)-4-[7-(2-hydroxy-3-morpholino-propoxy)imidazo[1,2-a]pyridin-3-yl]-6-methoxy-benzamide]",0.01 to 10,0.01 to 10,++ (>1.5-4.5)
"CNc1cc(-c2cnc3cc(OCCN(C)C)ccn23)cc2c1C(=O)N(CC(F)(F)F)CC2 [compound 167, 6-[7-[2-(dimethylamino)ethoxy]imidazo[1,2-a]pyridin-3-yl]-8-(methylamino)-2-(2,2,2-trifluoroethyl)-3,4-dihydroisoquinolin-1-one]",0.01 to 10,10 to 100,+ (≤1.5)
"COc1cc(-c2cnc3cc(OCc4ccnn4C)ccn23)cc(OC(F)F)c1C(=O)NC1CC1 [compound 44, N-cyclopropyl-2-(difluoromethoxy)-6-methoxy-4-[7-[(2-methylpyrazol-3-yl)methoxy]imidazo[1,2-a]pyridin-3-yl] benzamide]",0.01 to 10,0.01 to 10,+ (≤1.5)
"CNCCOc1ccn2c(-c3cc(OC)c(C(=O)NC4CC4)c(OC(F)F)c3)cnc2c1 [compound 117, N-cyclopropyl-2-(difluoromethoxy)-6-methoxy-4-[7-[2-(methylamino)ethoxy]imidazo[1,2-a]pyridin-3-yl]benzamide]",0.01 to 10,0.01 to 10,++ (>1.5-4.5)
"CCN(CC)CCOc1ccn2c(-c3cc4c(c(OC)c3)C(=O)N(CC(F)(F)F)CC4)cnc2c1 [compound 128, 6-[7-[2-(diethylamino)ethoxy]imidazo[1,2-a]pyridin-3-yl]-8-methoxy-2-(2,2,2-trifluoroethyl)-3,4-dihydroisoquinolin-1-one]",0.01 to 10,0.01 to 10,++ (>1.5-4.5)
"COc1cc(-c2cnc3cc(OCC4CCO4)ccn23)cc2c1C(=O)N(CC(F)(F)F)CC2 (stereo not drawn) [compound 125, 8-methoxy-6-[7-(oxetan-2-ylmethoxy)imidazo[1,2-a]pyridin-3-yl]-2-(2,2,2-trifluoroethyl)-3,4-dihydroisoquinolin-1-one]",0.01 to 10,0.01 to 10,++ (>1.5-4.5)
"COc1cc(-c2cnc3cc(OCCCN4CCCC(O)C4)ccn23)cc(OC(F)F)c1C(=O)NC1CC1 (stereo not drawn) [compound 328, N-cyclopropyl-2-(difluoromethoxy)-4-[7-[3-(3-hydroxy-1-piperidyl)propoxy]imidazo [1,2-a]pyridin-3-yl]-6-methoxy-benzamide]",0.01 to 10,0.01 to 10,++ (>1.5-4.5)
"COc1cc(-c2cnc3cc(OCCN(C)C)ccn23)cc(OC(F)F)c1C(=O)NCC(F)(F)F [compound 166, 2-(difluoromethoxy)-4-[7-[2-(dimethylamino)ethoxy]imidazo[1,2-a]pyridin-3-yl]-6-methoxy-N-(2,2,2-trifluoroethyl)benzamide]",0.01 to 10,0.01 to 10,++ (>1.5-4.5)
"COc1cc(-c2cnc3cc(OCC(O)CN4CCCCC4)ccn23)cc(OC(F)F)c1C(=O)NC1CC1 (stereo not drawn) [Cpd 321, N-cyclopropyl-2-(difluoromethoxy)-4-[7-[2-hydroxy-3-(1-piperidyl)propoxy]imidazo [1,2-a]pyridin-3-yl]-6-methoxy-benzamide]",0.01 to 10,0.01 to 10,++ (>1.5-4.5)
"COc1cc(-c2cnc3cc(OC[C@@H]4COCCO4)ccn23)cc2c1C(=O)N(CC(F)(F)F)CC2 [compound 225, 6-[7-[[(2S)-1,4-dioxan-2-yl]methoxy]imidazo[1,2-a]pyridin-3-yl]-8-methoxy-2-(2,2,2-trifluoroethyl)-3,4-dihydroisoquinolin-1-one]",0.01 to 10,0.01 to 10,++ (>1.5-4.5)
"CCNCCOc1ccn2c(-c3cc(OC)c(C(=O)NC4CC4)c(OC(F)F)c3)cnc2c1 [compound 37, N-cyclopropyl-2-(difluoromethoxy)-4-[7-[2-(ethylamino)ethoxy]imidazo[1,2-a]pyridin-3-yl]-6-methoxy-benzamide]",0.01 to 10,0.01 to 10,++ (>1.5-4.5)
"COc1cc(-c2cnc3cc(OCCN4CCOC[C@H]4C)ccn23)cc(OC(F)F)c1C(=O)NC1CC1 [compound 234, N-cyclopropyl-2-(difluoromethoxy)-6-methoxy-4-[7-[2-[(3R)-3-methylmorpholin-4-yl]ethoxy]imidazo[1,2-a]pyridin-3-yl]benzamide]",0.01 to 10,0.01 to 10,++ (>1.5-4.5)
"COc1cc(-c2cnc3cc(OCCCN4CCNCC4)ccn23)cc(OC(F)F)c1C(=O)NC1CC1 [compound 278, N-cyclopropyl-2-(difluoromethoxy)-6-methoxy-4-[7-(3-piperazin-1-ylpropoxy)imidazo[1,2-a]pyridin-3-yl]benzamide]",0.01 to 10,0.01 to 10,++ (>1.5-4.5)
"COc1cc(-c2cnc3cc(OCc4cnco4)ccn23)cc2c1C(=O)N(CC(F)(F)F)CC2 [compound 126, 8-methoxy-6-[7-(oxazol-5-ylmethoxy)imidazo[1,2-a]pyridin-3-yl]-2-(2,2,2-trifluoroethyl)-3,4-dihydroisoquinolin-1-one]",0.01 to 10,0.01 to 10,+ (≤1.5)
"COc1cc(-c2cnc3cc(OCCC4CCCN4C)ccn23)cc2c1C(=O)N(CC(F)(F)F)CC2 (stereo not drawn) [Cpd 122, 8-methoxy-6-[7-[2-(1-methylpyrrolidin-2-yl)ethoxy]imidazo[1,2-a]pyridin-3-yl]-2-(2,2,2-trifluoroethyl)-3,4-dihydroisoquinolin-1-one]",0.01 to 10,0.01 to 10,++ (>1.5-4.5)

# From US12264156B2, “Compounds and pharmaceutical compositions thereof for the treatment of diseases” (GALAPAGOS NV, priority 2018, dated 2025)
